In publication PMC6743422, “Preclinical disposition of MGS0274 besylate, a prodrug of a potent group II metabotropic glutamate receptor agonist MGS0008 for the treatment of schizophrenia” (Pharmacology Research & Perspectives, 2019):
Like-named read-outs stand apart in the source and are kept apart here. Marks after values point to notes of the source that are not given here.

What was measured:
[1] = tested on: CYP2B6 mRNA; test: CYP induction in primary cultured cryopreserved human hepatocytes, CYP2B6 mRNA; conditions: three consecutive 24-hour treatments
Method: (§1) The primary cultured cryopreserved human hepatocytes were plated in a collagen‐coated 96‐well plate (Becton Dickinson, Franklin Lakes, NJ) with Williams’ Medium E (Invitrogen, Carlsbad, CA) containing Geltrex^TM (Invitrogen) and Maintenance Supplements (Invitrogen) and maintained in humidified air‐5% CO2 at 37°C for 3 days. Then, the cells were cultured for three consecutive 24‐hour treatments with MGS0008 (3‐30 µmol/L), with MGS0274 besylate (3‐30 µmol/L), or with positive controls (omeprazole for CYP1A2 at 50 µmol/L, phenobarbital for CYP2B6 at 1000 µmol/L, or rifampicin for CYP3A4 at 10 µmol/L). The mRNA expression levels of CYP1A2, 2B6, and 3A4 were measured using the real‐time polymerase chain reaction (RT‐PCR) method (7500 Fast RT‐PCR system; Applied Biosystems, Foster City, CA) with TaqMan® Fast Universal PCR Master Mix (probe ID: Hs00167927_m1 for CYP1A2, Hs04183483_g1 for CYP2B6, and Hs00604506_ml for CYP3A4; Applied Biosystems). The fold change in the mRNA expression was calculated using the 2^‐ΔΔCT method.22

[2] = molecular target: T1, CYP2D6 (Homo sapiens, UniProt P10635); test: CYP inhibition in human liver microsomes, CYP2D6; format: in vitro ADME; conditions: human liver microsomes 0.1 mg/mL; probe (±)-Bufuralol, metabolite 1'-Hydroxybufuralol
T1 construct: using probe substrates for each CYP isoform and human liver microsomes; from tissue; host or cells: human liver microsomes
T1 sequence (P10635 whole entry, canonical isoform): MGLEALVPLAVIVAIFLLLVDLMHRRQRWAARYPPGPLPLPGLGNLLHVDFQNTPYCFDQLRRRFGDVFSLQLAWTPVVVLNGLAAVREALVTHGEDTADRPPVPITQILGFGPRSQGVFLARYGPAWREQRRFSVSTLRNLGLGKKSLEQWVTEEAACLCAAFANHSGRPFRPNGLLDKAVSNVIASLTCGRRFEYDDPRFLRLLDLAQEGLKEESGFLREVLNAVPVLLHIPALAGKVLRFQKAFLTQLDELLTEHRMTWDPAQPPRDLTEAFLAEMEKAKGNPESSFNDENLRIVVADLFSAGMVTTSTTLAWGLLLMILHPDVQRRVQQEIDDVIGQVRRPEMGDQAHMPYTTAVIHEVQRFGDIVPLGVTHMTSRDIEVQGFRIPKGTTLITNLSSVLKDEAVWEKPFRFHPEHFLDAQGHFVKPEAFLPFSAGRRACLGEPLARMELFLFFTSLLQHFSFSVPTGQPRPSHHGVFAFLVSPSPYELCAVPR

[3] = tested on: mRNA expression of CYP1A2, 2B6, and 3A4; test: CYP induction in human hepatocytes, CYP1A2, 2B6 and 3A4 together; format: in vitro ADME; conditions: 3-30 µmol/L; three lots of human hepatocytes
Method: as §1

[4] = tested on: CYP3A4 mRNA; format: in vitro ADME, human; conditions: three consecutive 24-hour treatments
Method: as §1

[5] = molecular target: T2, CYP2C9 (Homo sapiens, UniProt P11712); test: CYP inhibition in human liver microsomes, CYP2C9; format: in vitro ADME; conditions: human liver microsomes 0.1 mg/mL; probe Diclofenac, metabolite 4'-Hydroxydiclofenac
T2 construct: using probe substrates for each CYP isoform and human liver microsomes; from tissue; host or cells: human liver microsomes
T2 sequence (P11712 whole entry, canonical isoform): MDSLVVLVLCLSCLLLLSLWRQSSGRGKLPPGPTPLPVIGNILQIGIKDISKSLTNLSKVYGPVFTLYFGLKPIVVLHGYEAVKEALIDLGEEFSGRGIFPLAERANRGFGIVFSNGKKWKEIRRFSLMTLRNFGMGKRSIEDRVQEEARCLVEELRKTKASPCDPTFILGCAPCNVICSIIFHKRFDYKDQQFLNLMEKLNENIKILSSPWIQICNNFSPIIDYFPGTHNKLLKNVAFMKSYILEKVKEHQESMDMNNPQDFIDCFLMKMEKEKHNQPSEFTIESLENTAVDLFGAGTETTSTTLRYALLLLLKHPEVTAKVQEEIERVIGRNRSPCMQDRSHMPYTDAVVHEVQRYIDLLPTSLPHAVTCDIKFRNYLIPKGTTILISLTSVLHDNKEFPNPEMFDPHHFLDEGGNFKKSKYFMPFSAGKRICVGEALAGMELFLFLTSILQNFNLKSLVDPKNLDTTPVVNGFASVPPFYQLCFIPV

[6] = molecular target: T3, CYP2C8 (Homo sapiens, UniProt P10632); test: CYP inhibition in human liver microsomes, CYP2C8; format: in vitro ADME; conditions: human liver microsomes 0.1 mg/mL; probe Amodiaquine, metabolite N-desethylamodiaquine
T3 construct: using probe substrates for each CYP isoform and human liver microsomes; from tissue; host or cells: human liver microsomes
T3 sequence (P10632 whole entry, canonical isoform): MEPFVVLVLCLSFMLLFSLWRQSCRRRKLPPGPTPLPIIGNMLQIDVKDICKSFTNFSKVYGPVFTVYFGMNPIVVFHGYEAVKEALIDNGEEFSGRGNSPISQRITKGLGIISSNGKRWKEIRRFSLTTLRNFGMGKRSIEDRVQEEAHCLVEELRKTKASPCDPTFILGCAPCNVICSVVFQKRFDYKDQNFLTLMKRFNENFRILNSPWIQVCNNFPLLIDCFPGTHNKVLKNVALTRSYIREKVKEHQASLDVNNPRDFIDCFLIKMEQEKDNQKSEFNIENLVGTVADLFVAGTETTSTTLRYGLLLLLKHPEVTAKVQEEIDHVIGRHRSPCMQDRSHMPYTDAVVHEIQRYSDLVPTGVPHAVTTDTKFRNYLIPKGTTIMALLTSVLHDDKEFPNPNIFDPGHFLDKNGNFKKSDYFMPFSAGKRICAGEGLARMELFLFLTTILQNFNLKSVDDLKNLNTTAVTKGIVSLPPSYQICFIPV

[7] = molecular target: T4, CYP2C19 (Homo sapiens, UniProt P33261); test: CYP inhibition in human liver microsomes, CYP2C19; format: in vitro ADME; conditions: human liver microsomes 0.1 mg/mL; probe (S)-Mephenytoin, metabolite 4'-Hydroxymephenytoin
T4 construct: using probe substrates for each CYP isoform and human liver microsomes; from tissue; host or cells: human liver microsomes
T4 sequence (P33261 whole entry, canonical isoform): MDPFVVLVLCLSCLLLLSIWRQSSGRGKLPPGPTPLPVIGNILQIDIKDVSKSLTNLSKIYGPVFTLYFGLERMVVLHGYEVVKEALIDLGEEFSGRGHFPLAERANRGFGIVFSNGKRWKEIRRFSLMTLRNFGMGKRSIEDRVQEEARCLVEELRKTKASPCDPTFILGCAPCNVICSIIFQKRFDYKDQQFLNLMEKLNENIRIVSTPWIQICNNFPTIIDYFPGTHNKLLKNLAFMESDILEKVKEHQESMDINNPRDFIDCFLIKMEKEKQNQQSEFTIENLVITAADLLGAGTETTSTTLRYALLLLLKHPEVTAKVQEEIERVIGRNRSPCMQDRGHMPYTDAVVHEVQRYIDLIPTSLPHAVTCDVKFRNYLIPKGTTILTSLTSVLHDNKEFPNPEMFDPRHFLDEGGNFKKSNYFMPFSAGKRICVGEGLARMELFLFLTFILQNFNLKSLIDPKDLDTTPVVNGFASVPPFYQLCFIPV

[8] = molecular target: T5, CYP1A2 (Homo sapiens, UniProt P05177); test: CYP inhibition in human liver microsomes, CYP1A2; format: in vitro ADME; conditions: human liver microsomes 0.1 mg/mL; probe Phenacetin, metabolite Acetaminophen
T5 construct: using probe substrates for each CYP isoform and human liver microsomes; from tissue; host or cells: human liver microsomes
T5 sequence (P05177 whole entry, canonical isoform): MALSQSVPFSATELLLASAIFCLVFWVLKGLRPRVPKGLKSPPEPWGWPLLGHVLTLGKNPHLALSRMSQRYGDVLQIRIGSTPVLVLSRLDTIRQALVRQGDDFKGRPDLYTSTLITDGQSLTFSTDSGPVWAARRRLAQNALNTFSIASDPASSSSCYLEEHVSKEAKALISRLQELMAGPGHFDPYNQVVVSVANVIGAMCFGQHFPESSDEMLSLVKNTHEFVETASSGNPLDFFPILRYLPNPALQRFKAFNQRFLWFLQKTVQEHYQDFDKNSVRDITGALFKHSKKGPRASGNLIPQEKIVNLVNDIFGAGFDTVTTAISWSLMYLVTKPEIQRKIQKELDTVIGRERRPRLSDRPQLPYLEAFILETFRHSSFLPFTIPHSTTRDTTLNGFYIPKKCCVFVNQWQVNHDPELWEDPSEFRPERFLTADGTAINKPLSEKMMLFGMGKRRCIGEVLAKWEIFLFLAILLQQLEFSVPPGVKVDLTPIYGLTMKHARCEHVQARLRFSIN
Method: The inhibition potential of MGS0008 (0.3‐100 µmol/L) and MGS0274 besylate (0.03‐10 µmol/L) on the activity of human cytochrome P450 (CYP) isoforms (CYP1A2, 2B6, 2C8, 2C9, 2C19, 2D6, and 3A) was investigated using probe substrates for each CYP isoform and human liver microsomes, of which the final protein concentration was set at 0.1 mg/mL (see Table S2). The assay was started by spiking the reaction mixture, which had been pre‐incubated at 37°C for 5 minutes, with NADP^+. After incubation for 5 to 10 minutes, the reaction was terminated by adding acetonitrile containing an internal standard for each probe substrate, and the resultant mixture was centrifuged. Aliquots of the supernatant were subjected to bioanalysis using LC‐MS/MS (see Table S1‐D).
The final protein concentration in the reaction mixture was set at 0.1 mg/mL. The values in parentheses represent the final concentrations of compounds added in each reaction mixture. […]

[9] = tested on: cultured human hepatocytes; test: Toxicity to the cultured human hepatocytes; format: cell-based; conditions: at the concentrations tested (3-30 μM)
[10] = tested on: human cytochrome P450 (CYP) isoforms (CYP1A2, 2B6, 2C8, 2C9, 2C19, 2D6, and 3A); test: CYP inhibition in human liver microsomes, all 7 isoforms together; format: in vitro ADME; conditions: MGS0008 0.3-100 µmol/L, MGS0274 besylate 0.03-10 µmol/L
[11] = tested on: CYP1A2, 2B6, 2C8, 2C9, 2C19, 2D6 and 3A; test: as above; format: in vitro ADME; conditions: human, all the CYP isoforms tested, read-out: percent inhibition
[12] = molecular target: T6, CYP2B6 (Homo sapiens, UniProt P20813); test: CYP inhibition in human liver microsomes, CYP2B6; format: in vitro ADME; conditions: human liver microsomes 0.1 mg/mL; probe Bupropion, metabolite Hydroxybupropion
T6 construct: using probe substrates for each CYP isoform and human liver microsomes; from tissue; host or cells: human liver microsomes
T6 sequence (P20813 whole entry, canonical isoform): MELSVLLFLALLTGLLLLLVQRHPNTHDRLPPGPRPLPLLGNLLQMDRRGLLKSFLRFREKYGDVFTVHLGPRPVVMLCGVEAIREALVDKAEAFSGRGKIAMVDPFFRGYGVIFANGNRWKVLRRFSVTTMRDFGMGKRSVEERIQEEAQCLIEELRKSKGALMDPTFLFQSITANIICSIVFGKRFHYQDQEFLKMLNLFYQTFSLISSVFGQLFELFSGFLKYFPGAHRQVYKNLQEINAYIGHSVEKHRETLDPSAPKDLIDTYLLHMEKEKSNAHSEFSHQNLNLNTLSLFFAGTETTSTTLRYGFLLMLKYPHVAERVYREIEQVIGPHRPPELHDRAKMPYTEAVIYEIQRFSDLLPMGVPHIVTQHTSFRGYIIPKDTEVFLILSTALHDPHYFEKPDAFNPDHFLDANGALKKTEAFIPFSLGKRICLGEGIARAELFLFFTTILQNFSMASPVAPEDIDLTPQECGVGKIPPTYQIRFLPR

[13] = tested on: CYP1A2 mRNA; test: CYP induction in primary cultured cryopreserved human hepatocytes, CYP1A2 mRNA; format: in vitro ADME; conditions: three consecutive 24-hour treatments
Method: as §1

Row | Structure (SMILES) | Fold change of mRNA expression level CYP2B6 ([1]; hepatocyte lot Hu1487, 3 μM) | Fold change of mRNA expression level CYP2B6 ([1]; hepatocyte lot Hu1487, 10 μM) | Fold change of mRNA expression level CYP2B6 ([1]; hepatocyte lot Hu1487, 30 μM) | Fold change of mRNA expression level CYP2B6 ([1]; hepatocyte lot Hu8114, 3 μM) | Fold change of mRNA expression level CYP2B6 ([1]; hepatocyte lot Hu8114, 10 μM) | Fold change of mRNA expression level CYP2B6 ([1]; hepatocyte lot Hu8114, 30 μM) | Fold change of mRNA expression level CYP2B6 ([1]; hepatocyte lot Hu8123, 3 μM) | Fold change of mRNA expression level CYP2B6 ([1]; hepatocyte lot Hu8123, 10 μM) | Fold change of mRNA expression level CYP2B6 ([1]; hepatocyte lot Hu8123, 30 μM) | IC50 [2] | induction potential on the CYP mRNA tested [3] | Fold change of mRNA expression level CYP3A4 ([4]; hepatocyte lot Hu1487, 3 μM) | Fold change of mRNA expression level CYP3A4 ([4]; hepatocyte lot Hu1487, 10 μM) | Fold change of mRNA expression level CYP3A4 ([4]; hepatocyte lot Hu1487, 30 μM) | Fold change of mRNA expression level CYP3A4 ([4]; hepatocyte lot Hu8114, 3 μM) | Fold change of mRNA expression level CYP3A4 ([4]; hepatocyte lot Hu8114, 10 μM) | Fold change of mRNA expression level CYP3A4 ([4]; hepatocyte lot Hu8114, 30 μM) | Fold change of mRNA expression level CYP3A4 ([4]; hepatocyte lot Hu8123, 3 μM) | Fold change of mRNA expression level CYP3A4 ([4]; hepatocyte lot Hu8123, 10 μM) | Fold change of mRNA expression level CYP3A4 ([4]; hepatocyte lot Hu8123, 30 μM) | other results
1 | N[C@]1(C(=O)O)[C@H]2[C@@H](C[C@@H]1F)[C@@H]2C(=O)O [MGS0008, (1S,2S,3S,5R,6S)‐2‐amino‐3‐fluorobicyclo[3.1.0]hexane‐2,6‐dicarboxylic acid] | 0.9 fold | 0.7 fold | 0.9 fold | 0.8 fold | 0.8 fold | 1.0 fold | 1.2 fold | 1.2^b fold | 1.3 fold | > 100 µM | no apparent induction potential | 1.3 fold | 1.3 fold | 1.7 fold | 1.4 fold | 1.4 fold | 1.9 fold | 1.0 fold | 0.7 fold | 0.9 fold | IC50 [5]: > 100 µM; IC50 [6]: > 100 µM; IC50 [7]: > 100 µM; IC50 [8]: > 100 µM; toxicity to the cultured human hepatocytes [9]: did not show detectable toxicity; inhibitory potential on the CYP isoforms [10]: no inhibitory potential; inhibition at 100 µM ([11]; at 100 μM): < 50%; IC50 [12]: > 100 µM; Fold change of mRNA expression level CYP1A2 ([13]; hepatocyte lot Hu1487, 3 μM): 0.8 fold; Fold change of mRNA expression level CYP1A2 ([13]; hepatocyte lot Hu1487, 10 μM): 0.7 fold; Fold change of mRNA expression level CYP1A2 ([13]; hepatocyte lot Hu1487, 30 μM): 1.0 fold; Fold change of mRNA expression level CYP1A2 ([13]; hepatocyte lot Hu8114, 3 μM): 1.1 fold; Fold change of mRNA expression level CYP1A2 ([13]; hepatocyte lot Hu8114, 10 μM): 1.0 fold; Fold change of mRNA expression level CYP1A2 ([13]; hepatocyte lot Hu8114, 30 μM): 1.1 fold; Fold change of mRNA expression level CYP1A2 ([13]; hepatocyte lot Hu8123, 3 μM): 0.9 fold; Fold change of mRNA expression level CYP1A2 ([13]; hepatocyte lot Hu8123, 10 μM): 1.1^b fold; Fold change of mRNA expression level CYP1A2 ([13]; hepatocyte lot Hu8123, 30 μM): 0.9 fold
2 | CC(C)[C@@H]1CC[C@@H](C)C[C@H]1OC(=O)O[C@@H](C)OC(=O)[C@H]1[C@@H]2C[C@H](F)[C@@](N)(C(=O)O)[C@@H]21.O=S(=O)(O)c1ccccc1 [MGS0274 besylate, (1S,2S,3S,5R,6S)‐2‐amino‐3‐fluoro‐6‐({(1S)‐1‐[({[(1R,2S,5R)‐5‐methyl‐2‐(propan‐2‐yl)cyclohexyl]oxy}carbonyl)oxy]ethoxy}carbonyl)bicyclo[3.1.0]hexane‐2‐carboxylic acid monobenzenesulfonate] | 1.1 fold | 1.0 fold | 1.4 fold | 0.8 fold | 1.0 fold | 1.5 fold | 1.7 fold | 1.8 fold | 2.4 fold | > 10 µM | no apparent induction potential | 1.4 fold | 1.5 fold | 1.8 fold | 1.1 fold | 0.9 fold | 1.1 fold | 0.8 fold | 0.8 fold | 0.9 fold | IC50 [5]: > 10 µM; IC50 [6]: > 10 µM; IC50 [7]: > 10 µM; IC50 [8]: > 10 µM; toxicity to the cultured human hepatocytes [9]: did not show detectable toxicity; inhibitory potential on the CYP isoforms [10]: no inhibitory potential; inhibition at 10 µM ([11]; at 10 μM): < 50%; IC50 [12]: > 10 µM; Fold change of mRNA expression level CYP1A2 ([13]; hepatocyte lot Hu1487, 3 μM): 1.0 fold; Fold change of mRNA expression level CYP1A2 ([13]; hepatocyte lot Hu1487, 10 μM): 1.0 fold; Fold change of mRNA expression level CYP1A2 ([13]; hepatocyte lot Hu1487, 30 μM): 1.4 fold; Fold change of mRNA expression level CYP1A2 ([13]; hepatocyte lot Hu8114, 3 μM): 1.1 fold; Fold change of mRNA expression level CYP1A2 ([13]; hepatocyte lot Hu8114, 10 μM): 1.0 fold; Fold change of mRNA expression level CYP1A2 ([13]; hepatocyte lot Hu8114, 30 μM): 1.1 fold; Fold change of mRNA expression level CYP1A2 ([13]; hepatocyte lot Hu8123, 3 μM): 1.1 fold; Fold change of mRNA expression level CYP1A2 ([13]; hepatocyte lot Hu8123, 10 μM): 1.2 fold; Fold change of mRNA expression level CYP1A2 ([13]; hepatocyte lot Hu8123, 30 μM): 1.3 fold
